Results: patent US7563781B2, “Triazolopyrimidine derivatives” (Janssen Pharmaceutica NV, priority 2006, dated 2009)

Assays:
[1] = target: T1, Focal Adhesion Kinase (full-length Flag-tagged human FAK) (Homo sapiens, UniProt Q05397); test: in vitro FAK ELISA kinase assay; assay type: biochemical; details: compound 10 uM, ATP 2 uM; for inhibition at 10 µM: read-out: FAK % Inhib ave: 10 uM
T1 construct: a purified recombinant full-length Flag-tagged human FAK protein; Flag; made in house; host or cells: baculovirus infected insect cells
Outline: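 Plate-coated GST fusion of the 73-residue region around Tyr397 phosphorylated by full-length Flag-tagged human FAK from baculovirus-infected insect cells, with 2 μM ATP in Mg/Mn HEPES pH 7.5, 1 h at 30 °C. Phosphotyrosine detected by HRP-anti-pTyr ELISA with TMB read-out. Compounds screened at 10 μM or titrated from 50 μM in half-log steps for IC50, BSA-substrate background subtracted.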

[2] = target: T2, CAK complex (human Cdk7, human Cyclin H, MAT-1) (Homo sapiens, UniProt P50613); test: in vitro time-resolved-fluorescence assay for the CAK kinase activity; assay type: biochemical; details: compound 20 uM; for inhibition at 20 µM: read-out: CAK % inhib
T2 construct: made in house; host or cells: SF-900 insect cells co-infected with Flag-Cdk7 and Bab-Cyclin H baculoviruses
Outline: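 Kinase activity of the human CAK complex (Flag-tagged Cdk7, Cyclin H, MAT-1), purified from co-infected SF-900 insect cells by Flag-M2 immunoaffinity, was measured by time-resolved fluorescence. In black glutathione-coated 96-well plates, 500 ng GST-CTD substrate with 22 uM ATP was mixed with compound in 30% DMSO/25 mM Hepes and 250 ng CAK. Plates were incubated 20 minutes at 30° C, then stopped with EDTA, bound overnight and washed. A Europium-labeled antibody detected serine-phosphorylated CTD.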

T2 sequence (P50613 with tags, fused parts or gaps): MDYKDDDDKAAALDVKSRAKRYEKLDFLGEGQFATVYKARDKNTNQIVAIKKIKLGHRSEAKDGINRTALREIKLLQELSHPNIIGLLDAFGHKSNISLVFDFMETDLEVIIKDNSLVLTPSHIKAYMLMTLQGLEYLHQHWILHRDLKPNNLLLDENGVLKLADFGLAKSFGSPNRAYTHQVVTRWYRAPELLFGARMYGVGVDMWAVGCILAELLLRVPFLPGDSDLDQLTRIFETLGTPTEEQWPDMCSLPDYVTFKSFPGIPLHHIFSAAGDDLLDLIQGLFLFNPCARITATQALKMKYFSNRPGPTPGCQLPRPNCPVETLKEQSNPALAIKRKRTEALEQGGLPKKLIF
T2 sequence (as listed by the source partner): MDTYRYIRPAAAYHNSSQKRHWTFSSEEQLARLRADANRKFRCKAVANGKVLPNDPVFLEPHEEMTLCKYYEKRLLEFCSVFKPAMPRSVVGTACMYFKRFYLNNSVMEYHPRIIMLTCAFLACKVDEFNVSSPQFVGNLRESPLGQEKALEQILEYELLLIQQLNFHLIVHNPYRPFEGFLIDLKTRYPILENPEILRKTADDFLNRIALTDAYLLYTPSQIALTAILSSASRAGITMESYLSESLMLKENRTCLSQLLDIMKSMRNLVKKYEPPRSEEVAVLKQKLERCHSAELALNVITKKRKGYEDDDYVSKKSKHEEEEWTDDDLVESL
T1 sequence (Q05397 whole entry): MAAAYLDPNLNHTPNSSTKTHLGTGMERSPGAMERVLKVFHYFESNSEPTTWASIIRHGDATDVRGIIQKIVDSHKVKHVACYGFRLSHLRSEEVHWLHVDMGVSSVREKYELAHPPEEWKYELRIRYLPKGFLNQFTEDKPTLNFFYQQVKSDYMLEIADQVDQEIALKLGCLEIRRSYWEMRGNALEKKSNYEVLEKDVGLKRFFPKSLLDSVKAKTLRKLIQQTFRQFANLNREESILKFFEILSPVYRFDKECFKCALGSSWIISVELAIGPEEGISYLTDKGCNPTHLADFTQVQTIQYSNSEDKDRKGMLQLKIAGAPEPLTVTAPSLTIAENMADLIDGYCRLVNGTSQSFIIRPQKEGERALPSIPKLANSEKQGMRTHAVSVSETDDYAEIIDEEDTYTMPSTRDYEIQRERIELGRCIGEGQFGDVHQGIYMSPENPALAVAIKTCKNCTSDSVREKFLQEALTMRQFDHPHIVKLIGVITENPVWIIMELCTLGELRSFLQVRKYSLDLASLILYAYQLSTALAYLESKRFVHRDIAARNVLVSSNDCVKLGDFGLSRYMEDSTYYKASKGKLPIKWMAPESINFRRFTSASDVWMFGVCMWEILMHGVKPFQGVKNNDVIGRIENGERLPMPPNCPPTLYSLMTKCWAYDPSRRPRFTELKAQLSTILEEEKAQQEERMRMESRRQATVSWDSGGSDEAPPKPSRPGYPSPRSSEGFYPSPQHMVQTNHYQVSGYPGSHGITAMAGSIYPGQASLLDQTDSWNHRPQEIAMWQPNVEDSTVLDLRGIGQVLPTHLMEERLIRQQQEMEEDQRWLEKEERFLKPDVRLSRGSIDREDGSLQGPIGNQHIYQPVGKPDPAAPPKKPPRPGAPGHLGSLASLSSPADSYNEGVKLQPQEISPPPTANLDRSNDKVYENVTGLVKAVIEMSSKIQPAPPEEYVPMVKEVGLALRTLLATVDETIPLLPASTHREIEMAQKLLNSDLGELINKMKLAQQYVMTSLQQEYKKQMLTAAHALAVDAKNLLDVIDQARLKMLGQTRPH

Row | SMILES | inhibition at 10 µM [1] | inhibition at 20 µM [2] | FAK % Inhib ave: 10 uM [1] | CAK % inhib; 20 uM [2]
1 | CCCCNS(=O)(=O)c1cccc(-n2nnc3cnc(Nc4cc(OC)c(OC)c(OC)c4)nc32)c1 [Compound 34, N-Butyl-3-[5-(3,4,5-trimethoxy-phenylamino)-[1,2,3]triazolo[4,5-d]pyrimidin-3-yl]-benzene-sulfonamide] | 25% | 19% | – | –
2 | CN1CCN(CCCNC(=O)c2ccc(Nc3ncc4nnn(-c5ccc6c(c5)CCC6)c4n3)cc2)CC1 [Compound 78, 4-(3-Indan-5-yl-3H-[1,2,3]triazolo[4,5-d]pyrimidin-5-ylamino)-N-[3-(4-methyl-piperazin-1-yl)-propyl]-benzamide] | 72% | 89% | – | –
3 | CN(C)CC(O)COc1ccc(Nc2ncc3nnn(-c4ccc5ncsc5c4)c3n2)cc1 (stereo not shown) [Compound 14, 1-[4-(3-Benzothiazol-6-yl-3H-[1,2,3]triazolo[4,5-d]pyrimidin-5-ylamino)-phenoxy]-3-dimethylamino-propan-2-ol] | 76.8% | 42.2% | – | –
4 | CN(C)CC(O)COc1ccc(Nc2ncc3nnn(-c4ccc5ccccc5c4)c3n2)cc1 (stereo not shown) [Compound 12, 1-Dimethylamino-3-[4-(3-naphthalen-2-yl-3H-[1,2,3]triazolo[4,5-d]pyrimidin-5-ylamino)-phenoxy]-propan-2-ol] | 82.9% | 92.4% | – | –
5 | CCN(CC)CCNC(=O)c1ccc(Nc2ncc3nnn(-c4ccc(C(=O)NCCN(CC)CC)cc4)c3n2)cc1 [Compound 52] | 47.9% | -19.1% | – | –
6 | O=C(NCCN1CCOCC1)c1ccc(Nc2ncc3nnn(-c4ccc5c(c4)CCC5)c3n2)cc1 [Compound 76, 4-(3-Indan-5-yl-3H-[1,2,3]triazolo[4,5-d]pyrimidin-5-ylamino)-N-(2-morpholin-4-yl-ethyl)-benzamide] | 34.7% | 10.2% | – | –
7 | CCOC(=O)c1cccc(Nc2ncc3nnn(-c4ccc5c(c4)CCC5)c3n2)c1 [Compound 26, 3-(3-Indan-5-yl-3H-[1,2,3]triazolo[4,5-d]pyrimidin-5-ylamino)-benzoic acid ethyl ester] | 13% | 25.9% | – | –
8 | CCN(CC)CCNC(=O)c1ccc(Nc2ncc3nnn([C@@H](CO)[C@@H](O)c4ccccc4)c3n2)cc1 [Compound 70, N-(2-Diethylamino-ethyl)-4-[3-(2-hydroxy-1-hydroxymethyl-2-phenyl-ethyl)-3H-[1,2,3]triazolo[4,5-d]pyrimidin-5-ylamino]-benzamide] | 15% | 21% | – | –
9 | CN(CCCOc1ccc(Nc2ncc3nnn(-c4ccc5c(c4)CCC5)c3n2)cc1)CC(=O)O [Compound 89, ({3-[4-(3-Indan-5-yl-3H-[1,2,3]triazolo[4,5-d]pyrimidin-5-ylamino)-phenoxy]-propyl]-methyl-amino)-acetic acid] | 73.4% | 97.6% | – | –
10 | O=C(NCCCN1CCCC1=O)c1ccc(Nc2ncc3nnn(-c4ccc5c(c4)CCC5)c3n2)cc1 [Compound 77, 4-(3-Indan-5-yl-3H-[1,2,3]triazolo[4,5-d]pyrimidin-5-ylamino)-N-[3-(2-oxo-pyrrolidin-1-yl)-propyl]-benzamide] | 54.2% | 72.1% | – | –
11 | CN(C)CC(O)COc1ccc(Nc2ncc3nnn(-c4ccccc4)c3n2)cc1 (stereo not shown) [Compound 8, 1-Dimethylamino-3-[4-(3-phenyl-3H-[1,2,3]triazolo[4,5-d]pyrimidin-5-ylamino)-phenoxy]-propan-2-ol] | 77.4% | 92.2% | – | –
12 | c1ccc(-c2cccc(Nc3ncc4nnn(-c5ccc6c(c5)CCC6)c4n3)c2)cc1 [Compound 23, Biphenyl-3-yl-(3-indan-5-yl-3H-[1,2,3]triazolo[4,5-d]pyrimidin-5-yl)-amine] | 13% | 43.5% | – | –
13 | CNC(=O)c1cccc(-n2nnc3cnc(Nc4cccc(-c5ccnc(C)n5)c4)nc32)c1 [Compound 40, N-Methyl-3-{5-[3-(2-methyl-pyrimidin-4-yl)-phenylamino]-[1,2,3]triazolo[4,5-d]pyrimidin-3-yl}-benzamide] | 6.99% | -2.21% | – | –
14 | c1cc(-c2csnn2)ccc1Nc1ncc2nnn(-c3ccc4c(c3)CCC4)c2n1 [Compound 29, (3-Indan-5-yl-3H-[1,2,3]triazolo[4,5-d]pyrimidin-5-yl)-(4-[1,2,3]thiadiazol-4-yl-phenyl)-amine] | 11% | 16.3% | – | –
15 | NS(=O)(=O)c1cccc(Nc2ncc3nnn(-c4cccc(S(N)(=O)=O)c4)c3n2)c1 [Compound 47] | 63.6% | 51.3% | – | –
16 | CC(C)(C)OC(=O)N1CCC(CNc2ncc3nnn(-c4ccc5c(c4)CCC5)c3n2)CC1 [Compound 6, 4-[(3-Indan-5-yl-3H-[1,2,3]triazolo[4,5-d]pyrimidin-5-ylamino)-methyl]-piperidine-1-carboxylic acid tert-butyl ester] | 73% | 28.9% | – | –
17 | c1cc(Nc2ncc3nnn(C4CCc5ccccc54)c3n2)cc(-c2nnn[nH]2)c1 (stereo not shown) [Compound 60, (3-Indan-1-yl-3H-[1,2,3]triazolo[4,5-d]pyrimidin-5-yl)-[3-(1H-tetrazol-5-yl)-phenyl]-amine] | 26.8% | -0.99% | – | –
18 | CN(C)CC(O)COc1ccc(Nc2ncc3nnn(-c4ccc(N5CCOCC5)cc4)c3n2)cc1 (stereo not shown) [Compound 16, 1-Dimethylamino-3-{4-[3-(4-morpholin-4-yl-phenyl)-3H-[1,2,3]triazolo[4,5-d]pyrimidin-5-ylamino]-phenoxy}-propan-2-ol] | 50.5% | 83.1% | – | –
19 | CCOC(=O)N1CCC(n2nnc3cnc(Nc4ccc(C(=O)NCCN(CC)CC)cc4)nc32)CC1 [Compound 64, 4-{5-[4-(2-Diethylamino-ethylcarbamoyl)-phenylamino]-[1,2,3]triazolo[4,5-d]pyrimidin-3-yl}-piperidine-1-carboxylic acid ethyl ester] | 29.1% | 33.9% | – | –
20 | CNC(=O)c1cccc(-n2nnc3cnc(Nc4cccc(-c5ccccc5)c4)nc32)c1 [Compound 41, 3-[5-(Biphenyl-3-ylamino)-[1,2,3]triazolo[4,5-d]pyrimidin-3-yl]-N-methyl-benzamide] | -3.2% | 5.6% | – | –
21 | OCCCOc1ccc(Nc2ncc3nnn(-c4ccc5c(c4)CCC5)c3n2)cc1 [Compound 82, 3-[4-(3-Indan-5-yl-3H-[1,2,3]triazolo[4,5-d]pyrimidin-5-ylamino)-phenoxy]-propan-1-ol] | 13.5% | 5.06% | – | –
22 | CCN(CC)CCNC(=O)c1ccc(Nc2ncc3nnn(C4CCCC4)c3n2)cc1 [Compound 68, 4-(3-Cyclopentyl-3H-[1,2,3]triazolo[4,5-d]pyrimidin-5-ylamino)-N-(2-diethylamino-ethyl)-benzamide] | 56.5% | 63.8% | – | –
23 | CCOC(=O)/C=C/c1ccc(Nc2ncc3nnn(-c4ccc5c(c4)CCC5)c3n2)cc1 [Compound 28, 3-[4-(3-Indan-5-yl-3H-[1,2,3]triazolo[4,5-d]pyrimidin-5-ylamino)-phenyl]-acrylic acid ethyl ester] | 16% | 54.7% | – | –
24 | CCCCNS(=O)(=O)c1cccc(Nc2ncc3nnn(-c4cccc(S(=O)(=O)NCCCC)c4)c3n2)c1 [Compound 48] | 7.44% | -37.4% | – | –
25 | CCN(CC)CCOC(=O)c1ccc(Nc2ncc3nnn(-c4ccc5c(c4)CCC5)c3n2)cc1 [Compound 33, 4-(3-Indan-5-yl-3H-[1,2,3]triazolo[4,5-d]pyrimidin-5-ylamino)-benzoic acid 2-diethylamino-ethyl ester] | – | – | 28.57% | 42.00%
26 | CCN(CC)CCNC(=O)c1ccc(Nc2ncc3nnn(-c4ccc(N5CCN(Cc6ccccc6)CC5)cc4)c3n2)cc1 [Compound 56, 4-{3-[4-(4-Benzyl-piperazin-1-yl)-phenyl]-3H-[1,2,3]triazolo[4,5-d]pyrimidin-5-ylamino}-N-(2-diethylamino-ethyl)-benzamide] | 75.5% | 87.3% | – | –
27 | CNC(=O)c1cccc(Nc2ncc3nnn(-c4ccc(-c5csnn5)cc4)c3n2)c1 [Compound 39, N-Methyl-3-[3-(4-[1,2,3]thiadiazol-4-yl-phenyl)-3H-[1,2,3]triazolo[4,5-d]pyrimidin-5-ylamino]-benzamide] | 3.2% | -1.5% | – | –
28 | CCCCNS(=O)(=O)c1cccc(Nc2ncc3nnn(-c4ccc(N5CCN(Cc6ccccc6)CC5)cc4)c3n2)c1 [Compound 54, 3-{3-[4-(4-Benzyl-piperazin-1-yl)-phenyl]-3H-[1,2,3]triazolo[4,5-d]pyrimidin-5-ylamino}-N-butyl-benzene-sulfonamide] | 15.2% | 20.5% | – | –
29 | CN(Cc1ccccc1-n1nnc2cnc(Nc3ccc4c(c3)CCC4)nc21)C1CCCCC1 [Compound 20, (3-{2-[(Cyclohexyl-methyl-amino)-methyl]-phenyl}-3H-[1,2,3]triazolo[4,5-d]pyrimidin-5-yl)-indan-5-yl-amine] | 13% | 12.5% | – | –
